Source: US10975056B2 (GlaxoSmithKline Intellectual Property Development Limited, priority 2016, dated 2021)
Where “and” joins values, the source holds several entries; their conditions need not be identical. Identical values can stand only once. Counter-ions that a name gives are not always drawn. Like-named read-outs stand apart in the source and are kept apart here.

How the values were obtained:
DNMT1 = DNMT1 (Homo sapiens, UniProt P26358); experiment: DNMT1 biochemical activity, breaklight assay and/or SPA assay
[1] = tested on: erythroid progenitor cells (EPCs); experiment: Fetal hemoglobin (HbF) ELISA in day 7 erythroid progenitor cells; format: cell-based, human; conditions: HbF ELISA, day 7 EPCs, 5 days; for EC50: Homo sapiens, Erythroid progenitor cell, read-out: EPC ELISA (pEC50 category) (converted);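 for all read-outs here: for fetal hemoglobin induction normalized to vehicle-treated cells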
Outline: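 HbF induction was read by anti-HbF sandwich ELISA (HRP/TMB, OD450) on lysates and normalized to vehicle-treated cells. Cells were day 7 erythroid progenitors derived from human bone marrow CD34+ cells, seeded at 1,000/well with 3 U/mL rhEPO. Compound was given for 5 days at 37 °C at final concentrations […].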

[2] = binned activity in either the breaklight or the SPA assay
[3] = breaklight assay and/or SPA assay, repeated experimental runs, read-out: average pIC50 against DNMT1 (converted)

Sequence of DNMT1 (P26358 whole entry, looked up): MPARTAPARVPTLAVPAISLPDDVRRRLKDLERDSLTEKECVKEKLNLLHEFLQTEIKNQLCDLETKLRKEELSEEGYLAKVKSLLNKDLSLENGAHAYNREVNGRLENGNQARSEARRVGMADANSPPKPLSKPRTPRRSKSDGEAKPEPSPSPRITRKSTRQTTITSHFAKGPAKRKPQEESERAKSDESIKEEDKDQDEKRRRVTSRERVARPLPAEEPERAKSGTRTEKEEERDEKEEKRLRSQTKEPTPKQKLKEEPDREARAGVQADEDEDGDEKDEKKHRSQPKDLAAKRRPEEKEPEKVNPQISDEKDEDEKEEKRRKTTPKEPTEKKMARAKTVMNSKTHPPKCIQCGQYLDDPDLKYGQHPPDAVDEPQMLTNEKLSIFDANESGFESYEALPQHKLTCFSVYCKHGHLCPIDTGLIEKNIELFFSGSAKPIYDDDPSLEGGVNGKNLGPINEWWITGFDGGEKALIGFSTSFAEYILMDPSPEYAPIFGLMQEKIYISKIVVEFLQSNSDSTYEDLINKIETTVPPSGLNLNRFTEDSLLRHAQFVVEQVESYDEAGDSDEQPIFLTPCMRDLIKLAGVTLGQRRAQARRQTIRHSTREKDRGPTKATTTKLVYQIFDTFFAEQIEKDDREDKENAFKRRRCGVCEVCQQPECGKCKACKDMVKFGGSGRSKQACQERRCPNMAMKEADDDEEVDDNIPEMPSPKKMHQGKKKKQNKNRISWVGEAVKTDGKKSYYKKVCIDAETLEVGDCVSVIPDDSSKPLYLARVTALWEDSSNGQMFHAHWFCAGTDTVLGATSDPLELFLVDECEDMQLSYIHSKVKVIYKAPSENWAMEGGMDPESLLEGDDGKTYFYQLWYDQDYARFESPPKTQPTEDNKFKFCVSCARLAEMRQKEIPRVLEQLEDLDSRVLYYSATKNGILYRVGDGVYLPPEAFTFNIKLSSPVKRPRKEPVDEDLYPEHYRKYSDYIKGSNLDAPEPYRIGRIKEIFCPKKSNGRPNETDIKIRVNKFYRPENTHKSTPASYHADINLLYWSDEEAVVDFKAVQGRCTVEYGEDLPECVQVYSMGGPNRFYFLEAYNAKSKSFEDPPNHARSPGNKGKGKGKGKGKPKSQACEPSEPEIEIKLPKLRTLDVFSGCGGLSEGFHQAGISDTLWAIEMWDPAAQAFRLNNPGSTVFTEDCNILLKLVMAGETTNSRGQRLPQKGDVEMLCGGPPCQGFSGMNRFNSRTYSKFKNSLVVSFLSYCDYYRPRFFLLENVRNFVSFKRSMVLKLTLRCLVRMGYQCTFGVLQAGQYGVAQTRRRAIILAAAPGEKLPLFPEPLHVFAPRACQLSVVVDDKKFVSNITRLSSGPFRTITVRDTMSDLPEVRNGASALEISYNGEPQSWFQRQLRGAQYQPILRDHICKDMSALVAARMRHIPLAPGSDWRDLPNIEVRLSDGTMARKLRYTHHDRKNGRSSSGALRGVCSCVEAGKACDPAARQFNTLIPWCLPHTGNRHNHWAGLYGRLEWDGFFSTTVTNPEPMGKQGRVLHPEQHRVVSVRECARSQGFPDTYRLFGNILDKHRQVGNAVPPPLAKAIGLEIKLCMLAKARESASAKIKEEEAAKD

DNMT1 BioChemical (pIC50 category) (DNMT1; [2]) | EC50 [1] [nM] | IC50 (DNMT1; binned activity in either the breaklight or the SPA assay, read-out: DNMT1 BioChemical (pIC50 category) (converted)) [nM] | SMILES | IC50 (DNMT1; [3]) | EPC ELISA (pEC50 category) [1] | average pIC50 against DNMT1 (DNMT1; breaklight assay and/or SPA assay, repeated experimental runs, methanesulfonate 2,2,2-trifluoroacetate)
D (Category D: ≥6.5) | 1000 to 31600 | – | N#Cc1c(SC(C(N)=O)c2ccccc2)nc(N2CC(NC(=O)CN)C2)c(C#N)c1C1CC1 (centres unmarked) [Example 610, 2-amino-N-(1-(6-((2-amino-2-oxo-1-phenylethyl)thio)-3,5-dicyano-4-cyclopropylpyridin-2-yl)azetidin-3-yl)acetamide] | – | – | –
D (Category D: ≥6.5) | 1000 to 31600 | – | N#Cc1c(SC(C(N)=O)c2ccccc2)nc(N2CC(NC(=O)[C@@H](N)CO)C2)c(C#N)c1C1CC1 (stereo partly drawn) [Example 611, (2S)-2-amino-N-(1-(6-((2-amino-2-oxo-1-phenylethyl)thio)-3,5-dicyano-4-cyclopropylpyridin-2-yl)azetidin-3-yl)-3-hydroxypropanamide] | – | – | –
D (Category D: ≥6.5) | < 316 | – | CCc1c(C#N)c(SC(C(N)=O)c2ccccc2)nc(N2CCC[C@H](N)C2)c1C#N (stereo partly drawn) [Example 612, 2-((6-((S)-3-aminopiperidin-1-yl)-3,5-dicyano-4-ethylpyridin-2-yl)thio)-2-phenylacetamide] | – | – | –
D (Category D: ≥6.5) | < 316 | – | CCc1c(C#N)c(SC(C(N)=O)c2ccccc2)nc(N(C)CC(=O)N2CC[C@@H](O)C2)c1C#N (stereo partly drawn) [Example 613, 2-((3,5-dicyano-4-ethyl-6-((2-((R)-3-hydroxypyrrolidin-1-yl)-2-oxoethyl)(methyl)amino)pyridin-2-yl)thio)-2-phenylacetamide] | – | – | –
D (Category D: ≥6.5) | 1000 to 31600 | – | N#Cc1c(SC(C(N)=O)c2ccccc2)nc(N2CC(NC(=O)[C@H](N)CO)C2)c(C#N)c1C1CC1 (stereo partly drawn) [Example 614, (2R)-2-amino-N-(1-(6-((2-amino-2-oxo-1-phenylethyl)thio)-3,5-dicyano-4-cyclopropylpyridin-2-yl)azetidin-3-yl)-3-hydroxypropanamide] | – | – | –
D (Category D: ≥6.5) | < 316 | – | CCc1c(C#N)c(SC(C(N)=O)c2ccccc2)nc(N(C)CC(=O)N(C)CC(C)(C)CO)c1C#N (centres unmarked) [Example 615, 2-((6-((2-amino-2-oxo-1-phenylethyl)thio)-3,5-dicyano-4-ethylpyridin-2-yl)(methyl)amino)-N-(3-hydroxy-2,2-dimethylpropyl)-N-methylacetamide] | – | – | –
D (Category D: ≥6.5) | < 316 | – | CCc1c(C#N)c(SC(C(N)=O)c2ccccc2)nc(N(C)CC(=O)N2CC[C@H](O)C2)c1C#N (stereo partly drawn) [Example 616, 2-((3,5-dicyano-4-ethyl-6-((2-((S)-3-hydroxypyrrolidin-1-yl)-2-oxoethyl)(methyl)amino)pyridin-2-yl)thio)-2-phenylacetamide] | – | – | –
D (Category D: ≥6.5) | < 316 | – | CCc1c(C#N)c(SC(C(N)=O)c2ccccc2)nc(N(C)CC(=O)N2CCCC2)c1C#N (centres unmarked) [Example 620, 2-((3,5-dicyano-4-ethyl-6-(methyl(2-oxo-2-(pyrrolidin-1-yl)ethyl)amino)pyridin-2-yl)thio)-2-phenylacetamide] | – | – | –
D (Category D: ≥6.5) | < 316 | – | CCc1c(C#N)c(SC(C(N)=O)c2ccccc2)nc(N(C)CC(=O)N2CCC(O)CC2)c1C#N (centres unmarked) [Example 621, 2-((3,5-dicyano-4-ethyl-6-((2-(4-hydroxypiperidin-1-yl)-2-oxoethyl)(methyl)amino)pyridin-2-yl)thio)-2-phenylacetamide] | – | – | –
D (Category D: ≥6.5) | < 316 | – | CCc1c(C#N)c(SC(C(N)=O)c2ccccc2)nc(N(C)CC(=O)N2CCNCC2)c1C#N (centres unmarked) [Example 622, 2-((3,5-dicyano-4-ethyl-6-(methyl(2-oxo-2-(piperazin-1-yl)ethyl)amino)pyridin-2-yl)thio)-2-phenylacetamide] | – | – | –
D (Category D: ≥6.5) | < 316 | – | CCc1c(C#N)c(SC(C(N)=O)c2ccccc2)nc(N(C)CC(=O)N2CCOCC2)c1C#N (centres unmarked) [Example 623, 2-((3,5-dicyano-4-ethyl-6-(methyl(2-morpholino-2-oxoethyl)amino)pyridin-2-yl)thio)-2-phenylacetamide] | – | – | –
D (Category D: ≥6.5) | < 316 | – | CCc1c(C#N)c(SC(C(N)=O)c2ccccc2)nc(N2CC[C@H](ONC(=N)N)C2)c1C#N (stereo partly drawn) [Example 625, 2-((3,5-dicyano-4-ethyl-6-((S)-3-(guanidinooxy)pyrrolidin-1-yl)pyridin-2-yl)thio)-2-phenylacetamide] | – | – | –

More lines, now with the values behind:

SMILES | DNMT1 BioChemical (pIC50 category) (DNMT1; [2]) | EC50 [1] [nM] | IC50 (DNMT1; binned activity in either the breaklight or the SPA assay, read-out: DNMT1 BioChemical (pIC50 category) (converted)) [nM] | IC50 (DNMT1; [3]) | EPC ELISA (pEC50 category) [1] | average pIC50 against DNMT1 (DNMT1; breaklight assay and/or SPA assay, repeated experimental runs, methanesulfonate 2,2,2-trifluoroacetate)
CCc1c(C#N)c(S[C@@H](C(N)=O)c2ccccc2)nc(N2CCO[C@H](CNC(=O)CO)C2)c1C#N [Example 599, N-(((R)-4-(6-(((R)-2-amino-2-oxo-1-phenylethyl)thio)-3,5-dicyano-4-ethylpyridin-2-yl)morpholin-2-yl)methyl)-2-hydroxyacetamide] | D (Category D: ≥6.5) | 1000 to 31600 | – | – | – | –
CCc1c(C#N)c(SCc2ccc(N3CCCS3(=O)=O)cc2)nc(N2CCC(N)CC2)c1C#N [Example 600, 2-(4-aminopiperidin-1-yl)-6-((4-(1,1-dioxidoisothiazolidin-2-yl)benzyl)thio)-4-ethylpyridine-3,5-dicarbonitrile] | D (Category D: ≥6.5) | > 31600 | – | – | – | –
CCc1c(C#N)c(SCc2ccc(N3CCCCS3(=O)=O)cc2)nc(N2CCC(N)CC2)c1C#N [Example 601, 2-(4-aminopiperidin-1-yl)-6-((4-(1,1-dioxido-1,2-thiazinan-2-yl)benzyl)thio)-4-ethylpyridine-3,5-dicarbonitrile] | D (Category D: ≥6.5) | > 31600 | – | – | – | –
CCc1c(C#N)c(SCc2ccc(N(C)S(=O)(=O)C(F)F)cc2)nc(N2CCCN(C)CC2)c1C#N [Example 602, N-(4-(((3,5-dicyano-4-ethyl-6-(4-methyl-1,4-diazepan-1-yl)pyridin-2-yl)thio)methyl)phenyl)-1,1-difluoro-N-methylmethanesulfonamide] | – | < 316 | 316 to 1000 | 316 to 1000 nM and 501 nM | – | –
CCc1c(C#N)c(SCc2ccc(N3CCCS3(=O)=O)cc2)nc(N2CCC(NCC(C)(C)C)CC2)c1C#N [Example 603, 2-((4-(1,1-dioxidoisothiazolidin-2-yl)benzyl)thio)-4-ethyl-6-(4-(neopentylamino)piperidin-1-yl)pyridine-3,5-dicarbonitrile] | D (Category D: ≥6.5) | > 31600 | – | – | – | –
CCc1c(C#N)c(SCc2ccc(N3CCCCS3(=O)=O)cc2)nc(N2CCC(NCC(C)(C)C)CC2)c1C#N [Example 604, 2-((4-(1,1-dioxido-1,2-thiazinan-2-yl)benzyl)thio)-4-ethyl-6-(4-(neopentylamino)piperidin-1-yl)pyridine-3,5-dicarbonitrile] | D (Category D: ≥6.5) | > 31600 | – | – | – | –
CCc1c(C#N)c(SC(C(N)=O)c2ccccc2)nc(N(C)CC(=O)N(C)CCO)c1C#N (centres unmarked) [Example 606, 2-((6-((2-amino-2-oxo-1-phenylethyl)thio)-3,5-dicyano-4-ethylpyridin-2-yl)(methyl)amino)-N-(2-hydroxyethyl)-N-methylacetamide] | D (Category D: ≥6.5) | < 316 | – | – | – | –
CCc1c(C#N)c(SC(C(N)=O)c2ccccc2)nc(N2CCC[C@H](NC)C2)c1C#N (stereo partly drawn) [Example 607, 2-((3,5-dicyano-4-ethyl-6-((S)-3-(methylamino)piperidin-1-yl)pyridin-2-yl)thio)-2-phenylacetamide] | D (Category D: ≥6.5) | < 316 | – | – | – | –
CCc1c(C#N)c(SC(C(N)=O)c2ccccc2)nc(N(C)CC(=O)N(C)CC2(CO)CC2)c1C#N (centres unmarked) [Example 609, 2-((6-((2-amino-2-oxo-1-phenylethyl)thio)-3,5-dicyano-4-ethylpyridin-2-yl)(methyl)amino)-N-((1-(hydroxymethyl)cyclopropyl)methyl)-N-methylacetamide] | D (Category D: ≥6.5) | < 316 | – | – | – | –
CCc1c(C#N)c(SC(C(N)=O)c2ccccc2)nc(N2CCC(F)(CN)CC2)c1C#N (centres unmarked) [Example 618, 2-((6-(4-(aminomethyl)-4-fluoropiperidin-1-yl)-3,5-dicyano-4-ethylpyridin-2-yl)thio)-2-phenylacetamide hydrochloride] | D (Category D: ≥6.5) | < 316 | – | – | – | –
CN(CC(=O)NCCN)c1nc(SC(C(N)=O)c2ccccc2)c(C#N)c(C2CC2)c1C#N (centres unmarked) [Example 619, 2-((6-((2-amino-2-oxo-1-phenylethyl)thio)-3,5-dicyano-4-cyclopropylpyridin-2-yl)(methyl)amino)-N-(2-aminoethyl)acetamide hydrochloride] | D (Category D: ≥6.5) | 1000 to 31600 | – | – | – | –
CCc1c(C#N)c(S[C@@H](C(N)=O)c2ccccc2)nc(N2CC[C@](O)(CN)C2)c1C#N [Example 624, (R)-2-((6-((S)-3-(aminomethyl)-3-hydroxypyrrolidin-1-yl)-3,5-dicyano-4-ethylpyridin-2-yl)thio)-2-phenylacetamide] | D (Category D: ≥6.5) | – | – | – | B (Category B: 4.5 ≤ x < 6.0) | –
CCc1c(C#N)c(SCc2ccc(OS(C)(=O)=O)cc2)nc(N2CCC(N)CC2)c1C#N [Example 626, 4-(((6-(4-aminopiperidin-1-yl)-3,5-dicyano-4-ethylpyridin-2-yl)thio)methyl)phenyl methanesulfonate 2,2,2-trifluoroacetate] | D (Category D: ≥6.5) | < 316 | – | 200 nM | – | > 6.5
